Patent publication US20240271089A1, “METHODS TO GENERATE MACULAR, CENTRAL AND PERIPHERAL RETINAL PIGMENT EPITHELIAL CELLS” (THE U.S.A., as represented by the Secretary, Department of …, priority 2021, published 2024)
“Also recorded” adds a separate entry of the source. Values belong to the compound of their own block, whether it stands above or below them.

Experiments:
[1] = test system: iPSC-RPE; experiment: iPSC-RPE cell area morphometry (REShAPE) after compound treatment; assay type: cell-based; details: compared with macular (P1) and peripheral (P3) human RPE and the DMSO control
Experimental: FIG. 13. Testing different concentrations of AGN 193109 and endo-IWR-1 to reproduce macular (P1), central (P2) and peripheral (P3) cells. A range of concentrations of AGN 193109 and endo-IWR-1 were tested that could be used to reproduce macular, central and peripheral RPE populations (labeled P1, P2 and P3, respectively). Population 1 (P1, macular cells) can be reproduced with […] of AGN 193109. Population 3 (P3, peripheral) can be reproduced with 1 mM-4 mM of endo-IWR-1. A gradient of AGN 193109 and endo-IWR-1 could be used to replicate human RPE population 2 (P2, central)—central RPE cells. In one example, this can be reproduced with 25 nM-50 nM of AGN 193109 and 0.1 mM-0.5 mM of endo-IWR-1. Boxplots relative to DMSO, P1, P2 and P3 are plotted on the left side of the graph as a reference for cell size comparison. Five concentrations were tested for AGN 193109 and endo-IWR-1.
Screening of Compound Library and Imaging: 115 drugs targeting various developmental pathways or cytoskeletal stressors were selected to form a new developmental library of compounds. The drugs are either activators or inhibitors of various signaling pathways and target proteins at different levels of the signaling cascades. For each drug, an initial concentration was selected, and adjustments made to the concentration of each drug. The assays were performed on iPSC-derived committed RPE. For every drug, the concentration was lowered if toxicity was detected or increased if there was no evident effect on cell morphology in comparison to control. The list of compounds tested can be found in Table 1. The high-content screening was performed in 384-well plates (cat #6057300, Perkin Elmer) using a range of 3 different concentrations (3×, 1×, 0.3×). All drugs were reconstituted in dimethyl sulfoxide (DMSO, cat #D2650, Sigma) and 40 ul of each drug was aliquoted in triplicate in a 384-well master plate. Serial dilutions with RPEGM were then performed to obtain the final desired working concentrations and the final plates were stored at −80° C. […]

[2] = test system: iPSC-RPE; experiment: Trans-epithelial electrical resistance (TER) of treated iPSC-RPE monolayer; assay type: cell-based, human; details: for TER relative to cutoff / epithelial barrier integrity, in words: cutoff of 400 ohm*cm^2; for trans-epithelial electrical resistance (TER): fully mature iPSC-RPE, minimum threshold 400 Ωcm^2, DMSO around 1100 Ωcm^2
Experimental: (§1) Different techniques were used to study RPE morphologic features.
At this point the trans-epithelial electrical resistance (TER) was assayed to confirm the quality of differentiation and examine the effect of drugs on tight junction integrity. The minimum threshold of 400 Ωcm^2 for epithelial resistance per unit area is used to determine good batches of differentiation.
Trans-epithelial electrical resistance (TER) is a measure of the tightness of the monolayer. The tighter the monolayer, the healthier are the cells in the monolayer. A cutoff of 400 ohm*cm^2 was used to exclude cells with low TER. […] The range specifies 90% of the data.

[3] = test system: iPSC-RPE; experiment: Scanning electron microscopy of apical processes of treated iPSC-RPE; assay type: cell-based, human; details: for type of apical processes enriched: SEM, DMSO control shows both petal and finger-like types
Experimental: FIG. 11. Defining petal (undulated) and finger-like apical processes. The transversal section of apical processes was measured to precisely define their shape. Petal-like apical processes, obtained by treating RPE cells with AGN 193109, have an average transversal length of 1.68 μm (length min 0.5, max 4 μm) and width of 0.20 μm (width min 0.1, max 1 μm). The petal-like apical processes are also wavy along their length. The width of the undulation ranges from 0.2 to 2 μm. Finger-like apical processes, obtained by treating RPE cells with endo-IWR-1, are cylindrical and have the same average transversal length and width of 0.23 μm (min 0.1, max 1 microns). An example of how measurements of the apical processes was done is shown for each type of apical processed.
as §1
(§2) Finally, transmission electron microscopy (TEM) was used to detect fine morphological alterations, whereas scanning electron microscopy (SEM) was essential to study modifications in apical processes structures. […] In DMSO-treated iPSC-RPE we found both types of apical processes, petal and finger-like.

[4] = test system: iPSC-RPE; experiment: Pigmentation (brightfield), gross (H&E) and fine (TEM) morphology of treated iPSC-RPE; assay type: cell-based, human; details: for gross cell morphology: H&E staining; for gross cell morphology / pigmentation levels / fine intracellular structure: AGN 193109 0.2 μM, endo-IWR-1 4 uM; for pigmentation levels: brightfield imaging, compared with DMSO; for fine intracellular structure: transmission electron microscopy; for effect on iPSC-RPE health / healthy RPE phenotype: verified by TER, brightfield, H&E and TEM
Text: as §1
Brightfield imaging was used to determine RPE pigmentation defects, while hematoxylin and eosin (H&E) staining was valuable to inspect gross morphologic alterations of the monolayer. A section of transwell membrane was cut and mounted on a glass slide for brightfield imaging. Pigmentation levels were preserved after ENDO-1-IWR and AGN 193109 treatments as compared to DMSO-treated iPSC-RPE.
as §2
AGN 193109 was used at 0.2.μM and endo-IWR-1 at 4 uM. Both agents were dissolved in DMSO, so that the final concentration of DMSO was not more than 0.1%. The final concentration of DMSO control was 0.1%. The compounds were added in RPE maturation medium until cells were mature. Gross cell morphology was also analyzed (FIGS. 15B, 15E, and 15F, left image) to detect possible abnormalities. Fine intracellular structures were examined for alterations with transmission electron microscopy (TEM, FIGS. 15B, 15E, and 15F, right image).

[5] = test system: iPSC-RPE; experiment: Acid phosphatase activity in lysates of treated RPE cells (p-nitrophenyl phosphate); assay type: cell-based, human; details: compared with DMSO- or endo-IWR-1-treated cells
Experimental: Acid phosphatase has higher expression in the macula (Boulton et al., The British Journal of Ophthalmology 78 (2), 125-9, doi: 10.1136/bjo.78.2.125 (1994)). This enzyme has an important role in photoreceptor outer segment digestion. The acid phosphatase activity was determined in cells treated with DMSO, AGN 193109 or endo-IWR-1. For these studies, RPE cells were lysed in distilled water to extract the enzyme. The lysates were then incubated with p-nitrophenyl phosphate, a phosphatase substrate that turns yellow when dephosphorylated by acid phosphatase. The color of the solution was measured with a spectrophotometer to estimate the enzyme activity.

[6] = test system: iPSC-RPE cells; experiment: Phagocytosis test with labelled bovine outer segments, flow cytometry; assay type: cell-based, human; details: purified bovine outer segments, 4 hours, One-way ANOVA showed no difference
Experimental: iPSC-RPE cells were provided purified bovine outer segment (mostly rod photoreceptors) to phagocytose. The outer segments were labelled with a dye that fluoresces when the outer segments are phagocytosed. RPE cells were incubated for 4 hours with outer segments and then analyzed with flow cytometry to measure outer segment ingestion, or put back in the incubator for 20 hours before performing flow cytometry to measure outer segment digestion.

Compound: Cc1ccc(C2=CCC(C)(C)c3ccc(C#Cc4ccc(C(=O)O)cc4)cc32)cc1 [AGN 193109, 4-[2-[5,6-Dihydro-5,5-dimethyl-8-(4-methylphenyl)-2-naphthalenyl]ethynyl]-benzoic acid]
human RPE population whose cell size is reproduced by treated iPSC-RPE [1]: comparable to the dimension of macular RPE population (P1)
TER relative to cutoff / epithelial barrier integrity, in words [2]: well above the threshold; also recorded: well above this threshold
trans-epithelial electrical resistance (TER) [2]: ~1600 Ωcm^2
type of apical processes enriched [3]: enriched RPE cells with petal-like apical processes (with undulation)
average transversal width of apical processes ([3]; transversal section, FIG. 11): 0.20 μm
gross cell morphology [4]: no gross morphological alterations were detected; also recorded: nor did they affect gross or fine cell morphology
pigmentation levels [4]: preserved; also recorded: did not alter pigmentation levels
fine intracellular structure [4]: no fine intracellular structure defects were identified; also recorded: nor did they affect gross or fine cell morphology
effect on iPSC-RPE health / healthy RPE phenotype [4]: not disruptive of iPSC-RPE health; also recorded: did not affect the healthy RPE phenotype
acid phosphatase activity [5]: higher acid phosphatase activity

pigmentation levels [4]: did not alter pigmentation levels
pigmentation levels ([4]; listed as ENDO-1-IWR): preserved
pigmentation levels ([4]; listed as Endo-IWR-1): did not alter pigmentation levels
Compound: O=C(Nc1cccc2cccnc12)c1ccc(N2C(=O)C3C4C=CC(C4)C3C2=O)cc1 (stereo not drawn) [endo-IWR-1, 4-(1,3,3a,4,7,7a-Hexahydro-1,3-dioxo-4,7-methano-2H-isoindol-2-yl)-N-8-quinolinyl-Benzamide]
human RPE population whose cell size is reproduced by treated iPSC-RPE [1]: peripheral
human RPE population whose cell size is reproduced by treated iPSC-RPE ([1]; listed as ENDO-1-IWR): comparable to cells of peripheral RPE population P3
TER relative to cutoff / epithelial barrier integrity, in words [2]: well above the threshold; also recorded: well above this threshold
trans-epithelial electrical resistance (TER) [2]: ~1200 Ωcm^2
type of apical processes enriched [3]: enriched cells with finger-like apical processes
type of apical processes enriched ([3]; listed as ENDO-1-IWR): all RPE cells were enriched uniquely by finger-like apical processes
average transversal length of apical processes ([3]; transversal section, FIG. 11): 0.23 μm
average transversal width of apical processes ([3]; transversal section, FIG. 11): 0.23 μm
gross cell morphology [4]: nor did they affect gross or fine cell morphology
gross cell morphology ([4]; listed as ENDO-1-IWR): no gross morphological alterations were detected
fine intracellular structure [4]: nor did they affect gross or fine cell morphology
fine intracellular structure ([4]; listed as ENDO-1-IWR): no fine intracellular structure defects were identified
effect on iPSC-RPE health / healthy RPE phenotype ([4]; listed as ENDO-1-IWR): not disruptive of iPSC-RPE health; also recorded: did not affect the healthy RPE phenotype
outer segment ingestion [6]: ingest (peripheral cells) more outer segments
